What was measured:
naïve BALB/c mice = assay: Intranasal cys-LT in naïve BALB/c mice, lung histology; format: in vivo, mouse; settings: 2 nmol, three successive days
Procedure: Thus, it was sought to determine whether either cys-LT amplified pulmonary […], BALB/c mice received inhalation challenges on three consecutive days with low-dose OVA (0.1%) for 30 minutes. Twelve hours before each challenge, the mice received intranasal LTD4, LTE4, or a buffer control. A cohort of mice treated with 1% OVA were maintained as a positive control. The mice were then euthanized, their BAL fluid collected, and their lungs examined histologically for evidence of inflammation and goblet cell metaplasia, a dominant pathologic signature of Th2-polarized mucosal inflammation. […] The extent of the cellularity and goblet cell responses of the LTE4-treated animals approached the levels of these parameters in the mice treated with 1% OVA.
(§1) 15 bronchovascular bundles of each mouse were evaluated.

BALB/c mice = assay: Cys-LT amplification of pulmonary inflammation in OVA sensitized, low-dose OVA challenged BALB/c mice; format: in vivo, mouse; settings: intranasal cys-LT 12 h before each 0.1% OVA challenge
Procedure: FIG. 3. LTE4-mediated amplification of allergen-induced pulmonary inflammation. 3A. BAL fluid total cell counts (top) with percentages (middle) and total numbers (bottom) of eosinophils. Mice were sensitized twice with alum-precipitated ovalbumin (OVA). […] A separate sensitized group of mice were treated with 1% OVA as a positive control. 3B. Quantitative analysis if pulmonary inflammation, measured as the number of bronchovascular bundles with cellular infiltrates per 15 such bundles per mouse. 3C. Representative fields of H & E-stained lungs from mice from the indicated experimental groups. 3D. Morphometric analysis of goblet cell metaplasia, measured as the numbers of PAS-positive cells per mm of bronchial basal lamina. 3E. Representative PAS stains showing goblet cells (arrows). Results in 3A, 3B, and 3D are mean±SEM from 8-9 mice per group.
Thus, it was sought to determine whether either cys-LT amplified pulmonary inflammation induced by the inhalation of low-dose allergen in sensitized mice. Two weeks after sensitization with chicken egg ovalbumin (OVA) by intraperitoneal injection, BALB/c mice received inhalation challenges on three consecutive days with low-dose OVA (0.1%) for 30 minutes. Twelve hours before each challenge, the mice received intranasal LTD4, LTE4, or a buffer control. A cohort of mice treated with 1% OVA were maintained as a positive control. The mice were then euthanized, their BAL fluid collected, and their lungs examined histologically for evidence of inflammation and goblet cell metaplasia, a dominant pathologic signature of Th2-polarized mucosal inflammation. […] The extent of the cellularity and goblet cell responses of the LTE4-treated animals approached the levels of these parameters in the mice treated with 1% OVA.
Male BALB/c mice (6-8 weeks old) received intraperitoneal injections of reagent-grade chicken egg ovalbumin (OVA) (10 μg) precipitated with aluminum hydroxide ([…]) on days 0 and 7. […] Twelve hours after each dose, the mice were exposed to an aerosol of 0.1% OVA for 30 min delivered by an ultrasonic nebulizer. […] The mice were euthanized 24 hours after their third and final aerosol challenge. In some experiments, the mice received clopidogrel (500 μg/ml) in drinking water for 3 days before receiving the first intranasal dose of LTs. The treatment was continued throughout the procedure.
as §1

human P2Y12 = human P2Y12 (Homo sapiens, UniProt Q9H244); assay: Binding of [P^33]2-MesADP and [H^3]LTE4 to membranes of COS-7 cells transfected with the human P2Y12 construct; set-up: polyhistidine (HIS) tag (C); expressed in transfected cells; host or cells: COS-7 cells, transient; settings: COS-7 membranes, forward P2Y12 construct
Procedure: FIG. 10. Competitive ligand binding assays. 10A. […] Specific binding (typically 50-75% of the total) was calculated by subtracting the amount of radiolabel that was insensitive to the selective P2Y12 receptor antagonist 2-MesAMP. Nonspecific binding was essentially identical in the membranes with and without P2Y12 receptor knockdown. The dose response for the LAD2 membranes are from a single experiment repeated four times with similar results. The binding on the LAD2 cells with P2Y12 knocked down was repeated twice. 10B. Specific binding of radiolabeled ADP (2000 nM) to membranes of LAD2 cells. […] Results are mean±SD from three separate experiments. 10C. Conversion of radiolabeled LTD4 to LTE4 as confirmed by HPLC (left). […] Results in a second experiment were similar 10D. Competitive binding of radiolabeled 2-MesADP to COS-7 cells transfected with the human P2Y12 construct.
Competitive radioligand binding assays were performed using [H^3]ADP (the known natural ligand of P2Y12 receptors) and unlabeled LTs as competitors. […] The membranes from the transfectants expressing the forward construct bound [P^33]2-MesADP, a selective P2Y12 receptor agonist.

LAD2 cells = assay: MIP-1β generation by LAD2 cells (ELISA); format: cell-based, human
Procedure: FIG. 2. Requirement for P2Y12 receptors in LTE4-mediated LAD2 cell activation. 2A. Calcium flux of LAD2 cells stimulated with the indicated agonists (500 nM) in the presence or absence of the P2Y12 receptor-selective antagonist 2-MeSAMP (100 μM). […] 2B. […] Cells sensitized overnight with IgE and challenged with anti-IgE were used as the positive control. 2C. […] Results in 2B and 2C are mean±SEM from three independent experiments each. 2D. Effect of shRNA-mediated knockdown of P2Y12 receptor mRNA expression by LAD2 cells.
FIG. 9. Effect of apyrase treatment on LT-mediated activation of LAD2 cells. 9A. […] Concentrations of MIP-1β were measured by ELISA. 9B. […] Lysates were resolved by SDS-PAGE and probed with the indicated antibodies against phospho- and total ERK. Results in 9A are the mean±½ range from two experiments, while 9B is representative of two experiments.
Pre-treatment of the LAD2 cells with 2-MesAMP blocked the LTE4-mediated increment in MIP-1β production by >50% (FIG. 2B). […] To exclude potential off-target effects of the inhibitors, samples of LAD2 cells were transfected with lentiviruses encoding a P2Y12 sequence-specific shRNA, a CysLT1R-specific shRNA, or an empty vector control before stimulation. […] LTE4- and LTD4-dependent production of PGD2 were abrogated by the knockdowns of P2Y12 and CysLT1R, respectively (FIG. 2C, bottom). Neither GPCR knockdown altered MIP-1β generation or PGD2 production in response to IgE-anti-IgE (FIG. 2C). LTE4-mediated MIP-1β generation (FIG. 9A) and ERK activation (FIG. 9B) were not altered by treatment of LAD2 cells with apyrase to degrade extracellular ADP.
The concentration of MIP-1β was measured by an ELISA (ENDOGEN®). PGD2 was quantitated by a PGD2-methoxylamine hydrochloride (PGD2-MOX) assay.

Sequence of human P2Y12 (Q9H244 whole entry): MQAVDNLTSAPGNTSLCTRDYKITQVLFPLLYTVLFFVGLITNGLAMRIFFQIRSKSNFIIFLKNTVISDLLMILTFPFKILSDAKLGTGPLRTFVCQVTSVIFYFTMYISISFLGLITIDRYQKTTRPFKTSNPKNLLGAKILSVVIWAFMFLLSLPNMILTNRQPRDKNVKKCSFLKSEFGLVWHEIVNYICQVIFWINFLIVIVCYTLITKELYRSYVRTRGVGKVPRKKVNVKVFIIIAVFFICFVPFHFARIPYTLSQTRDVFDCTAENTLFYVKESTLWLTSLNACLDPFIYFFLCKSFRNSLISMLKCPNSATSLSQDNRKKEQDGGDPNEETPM

Structure (SMILES)	lung histology (cellular influx, goblet cell metaplasia) (naïve BALB/c mice)	BAL fluid eosinophilia (BALB/c mice)	bronchovascular inflammation (BALB/c mice)	goblet cell metaplasia (BALB/c mice)	competition for [P^33]2-MesADP binding (human P2Y12)	binding of [H^3]LTE4 to membranes (human P2Y12)	MIP-1β generation (LAD2 cells; LTE4 100 and 500 nM, 6 h)	effect on MIP-1β response to LTD4 and LTE4 (LAD2 cells; 2-MesAMP 100 μM, MK571 1 μM)
CCCCC/C=C\C\C=C/C=C/C=C/[C@@H](SC[C@H](N)C(=O)NCC(=O)O)[C@@H](O)CCCC(=O)O [LTD4]	no evidence of cellular influx or goblet cell metaplasia	did not increase	tended to slightly potentiate	tended to slightly potentiate	not competed	–	–	–
CCCCC/C=C\C\C=C/C=C/C=C/[C@@H](SC[C@H](N)C(=O)O)[C@@H](O)CCCC(=O)O [LTE4]	no evidence of cellular influx or goblet cell metaplasia	significantly enhanced	significantly enhanced	significantly enhanced	not competed	failed to bind	induced the generation of large amounts of MIP-1β	–
CN(C)C(=O)CCSC(SCCC(=O)O)c1cccc(/C=C/c2ccc3ccc(Cl)cc3n2)c1 (stereo not shown) [MK571]	–	–	–	–	–	–	–	suppressed the response to both ligands
